Test results published in ChEMBL document CHEMBL3352057, “Novel fluorinated pyrrolo[1,2-a]pyrazine-2,6-dione derivatives: synthesis and anticonvulsant evaluation in animal models of epilepsy” (Bioorg Med Chem, 2014).
Activity calls are given as the source filed them. The calls are words filed in the database; no cut-off is given here.

Assays:
Mus musculus [1] = test: Anticonvulsant activity in albino CF1 mouse assessed as protection against iv infusion metrazol-induced seizures measured as clonus at 79 mg/kg, ip (reference value: 31.1 mg/kg); format: functional
Mus musculus [2] = test: Neurotoxicity in albino CF1 mouse at 100 mg/kg, ip measured after 4 hrs; format: toxicity, organism-based; parameters: dose 100 mg/kg, route intraperitoneal; conditions: in vivo
[3] = Neurotoxicity in ip dosed albino CF1 mouse; format: toxicity, organism-based; conditions: in vivo
Mus musculus [4] = test: Anticonvulsant activity in albino CF1 mouse assessed as protection against 44 mA current-induced seizures at 100 mg/kg, ip measured after 1 hr; format: functional, organism-based; parameters: dose 100 mg/kg
Mus musculus [5] = test: Anticonvulsant activity in ip dosed albino CF1 mouse assessed as protection against maximal electroshock-induced seizures measured as time to peak effect; format: functional
Mus musculus [6] = test: Anticonvulsant activity in albino CF1 mouse assessed as protection against iv infusion metrazol-induced seizures measured as weight at 79 mg/kg, ip (reference value: 26.75 grams); format: functional
Mus musculus [7] = test: Anticonvulsant activity in ip dosed corneal kindled albino CF1 mouse seizure model; format: functional
Mus musculus [8] = test: Anticonvulsant activity in ip dosed albino CF1 mouse assessed as protection against subcutaneous metrazol-induced seizures; format: functional
Mus musculus [9] = test: Anticonvulsant activity in albino CF1 mouse assessed as protection against maximal electroshock-induced seizures at 100 mg/kg, ip measured after 0.5 hr; format: functional, organism-based; parameters: dose 100 mg/kg
Rattus norvegicus [10] = test: Anticonvulsant activity in Sprague-Dawley rat assessed as protection against maximal electroshock-induced seizures at 30 mg/kg, po measured after 2 hrs; format: functional, organism-based; parameters: dose 30 mg/kg
Rattus norvegicus [11] = test: Anticonvulsant activity in Sprague-Dawley rat assessed as protection against maximal electroshock-induced seizures at 30 mg/kg, po measured after 0.5 hr; format: functional, organism-based; parameters: dose 30 mg/kg
Mus musculus [12] = test: Anticonvulsant activity in albino CF1 mouse assessed as protection against 44 mA current-induced seizures at 100 mg/kg, ip measured after 2 hrs; format: functional, organism-based; parameters: dose 100 mg/kg
Mus musculus [13] = test: Anticonvulsant activity in albino CF1 mouse assessed as protection against iv infusion metrazol-induced seizures measured as time to twitch at 79 mg/kg, ip (reference value: 26.6 seconds); format: functional
Rattus norvegicus [14] = test: Anticonvulsant activity in Sprague-Dawley rat assessed as protection against maximal electroshock-induced seizures at 30 mg/kg, ip measured after 0.25 hr; format: functional, organism-based; parameters: dose 30 mg/kg
Mus musculus [15] = test: Neurotoxicity in 32 mA current-induced seizure albino CF1 mouse model at 100 mg/kg, ip measured after 4 hrs; format: toxicity, organism-based; parameters: dose 100 mg/kg, route intraperitoneal; conditions: in vivo
Mus musculus [16] = test: Anticonvulsant activity in albino CF1 mouse assessed as protection against maximal electroshock-induced seizures at 100 mg/kg, ip measured after 0.25 hr; format: functional, organism-based; parameters: dose 100 mg/kg
Mus musculus [17] = test: Neurotoxicity in 32 mA current-induced seizure albino CF1 mouse model at 100 mg/kg, ip measured after 1 hr; format: toxicity, organism-based; parameters: dose 100 mg/kg, route intraperitoneal; conditions: in vivo
Mus musculus [18] = test: Neurotoxicity in 44 mA current-induced seizure albino CF1 mouse model at 100 mg/kg, ip measured after 2 hrs; format: toxicity, organism-based; parameters: dose 100 mg/kg, route intraperitoneal; conditions: in vivo
Mus musculus [19] = test: Anticonvulsant activity in albino CF1 mouse assessed as protection against 32 mA current-induced seizures at 100 mg/kg, ip measured after 4 hrs; format: functional, organism-based; parameters: dose 100 mg/kg
Mus musculus [20] = test: Neurotoxicity in albino CF1 mouse at 100 mg/kg, ip measured after 0.25 hr; format: toxicity, organism-based; parameters: dose 100 mg/kg, route intraperitoneal; conditions: in vivo
Rattus norvegicus [21] = test: Neurotoxicity in MES Sprague-Dawley rat model at 30 mg/kg, ip measured after 2 hrs; format: toxicity, organism-based; parameters: dose 30 mg/kg, route intraperitoneal; conditions: in vivo
[22] = Neurotoxicity in ip dosed Sprague-Dawley rat; format: toxicity, organism-based; conditions: in vivo
Mus musculus [23] = test: Neurotoxicity in 44 mA current-induced seizure albino CF1 mouse model at 100 mg/kg, ip measured after 4 hrs; format: toxicity, organism-based; parameters: dose 100 mg/kg, route intraperitoneal; conditions: in vivo
Mus musculus [24] = test: Neurotoxicity in 32 mA current-induced seizure albino CF1 mouse model at 100 mg/kg, ip measured after 0.25 hr; format: toxicity, organism-based; parameters: dose 100 mg/kg, route intraperitoneal; conditions: in vivo
Rattus norvegicus [25] = test: Anticonvulsant activity in Sprague-Dawley rat assessed as protection against maximal electroshock-induced seizures at 30 mg/kg, po measured after 0.25 hr; format: functional, organism-based; parameters: dose 30 mg/kg
Rattus norvegicus [26] = test: Anticonvulsant activity in ip dosed Sprague-Dawley rat assessed as protection against subcutaneous metrazol-induced seizures; format: functional
Rattus norvegicus [27] = test: Neurotoxicity in MES Sprague-Dawley rat model at 30 mg/kg, po measured after 1 hr; format: toxicity, organism-based; parameters: dose 30 mg/kg, route oral; conditions: in vivo
Rattus norvegicus [28] = test: Anticonvulsant activity in ip dosed Sprague-Dawley rat assessed as protection against maximal electroshock-induced seizures; format: functional
Mus musculus [29] = test: Anticonvulsant activity in albino CF1 mouse assessed as protection against 32 mA current-induced seizures at 100 mg/kg, ip measured after 2 hrs; format: functional, organism-based; parameters: dose 100 mg/kg
Rattus norvegicus [30] = test: Anticonvulsant activity in Sprague-Dawley rat assessed as protection against maximal electroshock-induced seizures at 30 mg/kg, po measured after 4 hrs; format: functional, organism-based; parameters: dose 30 mg/kg
Mus musculus [31] = test: Anticonvulsant activity in ip dosed corneal kindled albino CF1 mouse seizure model assessed as time to peak effect; format: functional
Mus musculus [32] = test: Anticonvulsant activity in albino CF1 mouse assessed as protection against iv infusion metrazol-induced seizures measured as time to clonus at 24 mg/kg, ip (reference value: 29.4 seconds); format: functional
Mus musculus [33] = test: Neurotoxicity in albino CF1 mouse at 100 mg/kg, ip measured after 1 hr; format: toxicity, organism-based; parameters: dose 100 mg/kg, route intraperitoneal; conditions: in vivo
Mus musculus [34] = test: Neurotoxicity in 44 mA current-induced seizure albino CF1 mouse model at 100 mg/kg, ip measured after 1 hr; format: toxicity, organism-based; parameters: dose 100 mg/kg, route intraperitoneal; conditions: in vivo
Rattus norvegicus [35] = test: Neurotoxicity in MES Sprague-Dawley rat model at 30 mg/kg, ip measured after 0.25 hr; format: toxicity, organism-based; parameters: dose 30 mg/kg, route intraperitoneal; conditions: in vivo
Mus musculus [36] = test: Anticonvulsant activity in albino CF1 mouse assessed as protection against maximal electroshock-induced seizures at 100 mg/kg, ip measured after 4 hrs; format: functional, organism-based; parameters: dose 100 mg/kg
Mus musculus [37] = test: Anticonvulsant activity in albino CF1 mouse assessed as protection against iv infusion metrazol-induced seizures measured as twitch at 79 mg/kg, ip (reference value: 28.2 mg/kg); format: functional
Rattus norvegicus [38] = test: Anticonvulsant activity in ip dosed hippocampal kindled albino Sprague-Dawley rat seizure model; format: functional; conditions: Hippocampus
Mus musculus [39] = test: Anticonvulsant activity in albino CF1 mouse assessed as protection against 32 mA current-induced seizures at 100 mg/kg, ip measured after 0.25 hr; format: functional, organism-based; parameters: dose 100 mg/kg
Mus musculus [40] = test: Anticonvulsant activity in albino CF1 mouse assessed as protection against 44 mA current-induced seizures at 100 mg/kg, ip measured after 0.5 hr; format: functional, organism-based; parameters: dose 100 mg/kg
Rattus norvegicus [41] = test: Anticonvulsant activity in Sprague-Dawley rat assessed as protection against maximal electroshock-induced seizures at 30 mg/kg, ip measured after 2 hrs; format: functional, organism-based; parameters: dose 30 mg/kg
Mus musculus [42] = test: Anticonvulsant activity in ip dosed albino CF1 mouse assessed as protection against 6 Hz current-induced seizures measured as time to peak effect; format: functional
Rattus norvegicus [43] = test: Anticonvulsant activity in ip dosed Sprague-Dawley rat assessed as protection against maximal electroshock-induced seizures measured as time to peak effect; format: functional
Rattus norvegicus [44] = test: Neurotoxicity in MES Sprague-Dawley rat model at 30 mg/kg, ip measured after 1 hr; format: toxicity, organism-based; parameters: dose 30 mg/kg, route intraperitoneal; conditions: in vivo
Rattus norvegicus [45] = test: Neurotoxicity in MES Sprague-Dawley rat model at 30 mg/kg, po measured after 2 hrs; format: toxicity, organism-based; parameters: dose 30 mg/kg, route oral; conditions: in vivo
Mus musculus [46] = test: Neurotoxicity in 44 mA current-induced seizure albino CF1 mouse model at 100 mg/kg, ip measured after 0.25 hr; format: toxicity, organism-based; parameters: dose 100 mg/kg, route intraperitoneal; conditions: in vivo
Mus musculus [47] = test: Anticonvulsant activity in albino CF1 mouse assessed as protection against iv infusion metrazol-induced seizures measured as weight at 24 mg/kg, ip (reference value: 26.75 grams); format: functional

O=C1NC(=O)[C@@H]2CCCN2[C@H]1c1cccc(OC(F)(F)F)c1
Activity (Mus musculus [1]): 97.2 mg/kg
Activity (Mus musculus [2]): Non-toxic
TD50 [3]: 252 µmol/kg
Activity (Mus musculus [4]): Active
Time (Mus musculus [5]): 0.25 h
Activity (Mus musculus [6]): 27.6 g
ED50 (Mus musculus [7]): 171 µmol/kg
ED50 (Mus musculus [8]): 200 µmol/kg
Activity (Mus musculus [9]): Active
Activity (Rattus norvegicus [10]): inactive
Activity (Rattus norvegicus [11]): inactive
Activity (Mus musculus [12]): inactive
Time (Mus musculus [13]): 63.1 s
Activity (Rattus norvegicus [14]): Active
Activity (Mus musculus [15]): Non-toxic
Activity (Mus musculus [16]): Active
Activity (Mus musculus [17]): Non-toxic
Activity (Mus musculus [18]): Non-toxic
Activity (Mus musculus [19]): inactive
Activity (Mus musculus [20]): Toxic
Activity (Rattus norvegicus [21]): Non-toxic
TD50 [22]: 114 µmol/kg
Activity (Mus musculus [23]): Non-toxic
Activity (Mus musculus [24]): Toxic
Activity (Rattus norvegicus [25]): inactive
ED50 (Rattus norvegicus [26]): 41 µmol/kg
Activity (Rattus norvegicus [27]): Non-toxic
ED50 (Rattus norvegicus [28]): 40 µmol/kg
Activity (Mus musculus [29]): inactive
Activity (Rattus norvegicus [30]): inactive
Time (Mus musculus [31]): 0.25 h
Time (Mus musculus [32]): 39.4 s
Activity (Mus musculus [33]): Non-toxic
Activity (Mus musculus [34]): Non-toxic
Activity (Rattus norvegicus [35]): Non-toxic
Activity (Mus musculus [36]): inactive
Activity (Mus musculus [37]): 64.8 mg/kg
ED50 (Rattus norvegicus [38]): 48 µmol/kg
Activity (Mus musculus [39]): Active
Activity (Mus musculus [40]): Active
Activity (Rattus norvegicus [41]): inactive
Time (Mus musculus [42]): 0.25 h
Time (Rattus norvegicus [43]): 0.25 h
Activity (Rattus norvegicus [44]): Non-toxic
Activity (Rattus norvegicus [45]): Non-toxic
Activity (Mus musculus [46]): Toxic
Activity (Mus musculus [47]): 26.8 g
